Tests used:
[1] = system: rabbit serum obtained by immunizing a rabbit with the SARS-CoV strain Frankfurt 1; format: binding; parameters: Binding of a rabbit serum to linear peptides / Binding of a rabbit serum to looped peptides / Rabbit serum linear peptides / Rabbit serum looped peptides / Binding of a rabbit serum to linear peptides of protein N of SARS-CoV Urbani (Rabbit serum linear peptides) / Binding of a rabbit serum to looped/cyclic peptides of protein N of SARS-CoV Urbani (Rabbit serum looped peptides): unit not given here
[2] = system: control sera (pooled serum of ten healthy LUMC hospital workers; commercial negative donor pooled serum from the Dutch bloodbank); format: binding, human; parameters: Binding of Control serum LUMC to linear peptides / Binding of Control serum Blood-bank to linear peptides / Binding of Control serum LUMC to looped peptides / Binding of Control Serum Blood-Bank to Looped peptides / Binding of Control serum LUMC to linear peptides of the protein M of SARS-CoV Urbani / Binding of Control serum Blood-bank to linear peptides of the protein M of SARS-CoV Urbani / Binding of Control serum LUMC to looped peptides of the protein M of SARS-CoV Urbani / Binding of Control Serum Blood-Bank to Looped peptides of the protein M of SARS-CoV Urbani: unit not given here
[3] = system: antibodies in sera from SARS patients (sera 1a, 1b, 2, 6, 37, 62, London, SARS-yellow, SARS-green); format: binding, human; parameters: Binding of serum 6 to linear peptides of protein X1 of SARS-CoV Urbani / Binding of serum 37 to linear peptides of protein X1 of SARS-CoV Urbani / Binding of serum 6 to looped/cyclic peptide (PEPSCAN-ELISA) / Binding of serum 37 to looped/cyclic peptide (PEPSCAN-ELISA) / Binding of serum 37 to looped/cyclic peptides of protein X1 of SARS-CoV Urbani / Binding of serum 6 to linear peptides of protein X2 / Binding of serum 37 to linear peptides of protein X2 / Binding of serum 37 to looped/cyclic peptides of protein X2 of SARS-CoV Urbani / Binding of serum 6 to linear peptides of protein M of SARS-CoV Urbani / Binding of serum 37 to linear peptides of protein M of SARS-CoV Urbani / Binding of serum 6 to looped/cyclic peptides of protein M of SARS-CoV Urbani / Binding of serum 37 to looped/cyclic peptides of protein M of SARS-CoV Urbani / Binding of serum 6 to linear peptides of protein X3 of SARS-CoV Urbani / Binding of serum 37 to linear peptides of protein X3 of SARS-CoV Urbani / Binding of serum 37 to looped/cyclic peptides of protein X3 of SARS-CoV Urbani / Binding of serum 6 to linear peptides of protein X4 of SARS-CoV Urbani / Binding of serum 37 to linear peptides of protein X4 of SARS-CoV Urbani / Binding of serum 37 to looped/cyclic peptides of protein X4 of SARS-CoV Urbani / Binding of serum 6 to linear peptides of protein X5 of SARS-CoV Urbani / Binding of serum 37 to linear peptides of protein X5 of SARS-CoV Urbani / Binding of serum 37 to looped/cyclic peptides of protein X5 of SARS-CoV Urbani / Binding of serum 6 to linear peptides of protein N of SARS-CoV Urbani / Binding of serum 37 to linear peptides of protein N of SARS-CoV Urbani / Binding of serum 6 to linear peptide (PEPSCAN-ELISA) / Binding of serum 1a to looped/cyclic peptides of protein N of SARS-CoV Urbani / Binding of serum 1b to looped/cyclic peptides of protein N of SARS-CoV Urbani / Binding of serum 2 to looped/cyclic peptides of protein N of SARS-CoV Urbani / Binding of serum 6 to looped/cyclic peptides of protein N of SARS-CoV Urbani / Binding of serum 37 to looped/cyclic peptides of protein N of SARS-CoV Urbani / Binding of serum 62 to looped/cyclic peptides of protein N of SARS-CoV Urbani / Binding of serum London to looped/cyclic peptides of protein N of SARS-CoV Urbani / Binding of serum SARS-green to looped/cyclic peptides of protein N of SARS-CoV Urbani: unit not given here

FHRWHTMVQTCTPNV
Rabbit serum linear peptides [1]: 0.8 | Rabbit serum looped peptides [1]: 0.4 | Binding of Control Serum Blood-Bank to Looped peptides [2]: 0.4 | Binding of Control serum Blood-bank to linear peptides [2]: 0.7 | Binding of Control serum LUMC to linear peptides [2]: 0.5 | Binding of Control serum LUMC to looped peptides [2]: 0.5 | Binding of serum 1a to linear peptides of protein X5 of SARS-CoV Urbani [3]: 0.8 | Binding of serum 1a to looped/cyclic peptides of protein X5 of SARS-CoV Urbani [3]: 0.7 | Binding of serum 1b to linear peptides of protein X5 of SARS-CoV Urbani [3]: 0.7 | Binding of serum 1b to looped/cyclic peptides of protein X5 of SARS-CoV Urbani [3]: 0.6 | Binding of serum 2 to linear peptides of protein X5 of SARS-CoV Urbani [3]: 0.9 | Binding of serum 2 to looped/cyclic peptides of protein X5 of SARS-CoV Urbani [3]: 0.6 | Binding of serum 6 to linear peptides of protein X5 of SARS-CoV Urbani [3]: 0.5 | Binding of serum 6 to looped/cyclic peptides of protein X5 of SARS-CoV Urbani [3]: 0.3 | Binding of serum 37 to linear peptides of protein X5 of SARS-CoV Urbani [3]: 0.7 | Binding of serum 37 to looped/cyclic peptides of protein X5 of SARS-CoV Urbani [3]: 0.5 | Binding of serum 62 to linear peptides of protein X5 of SARS-CoV Urbani [3]: 0.7 | Binding of serum 62 to looped/cyclic peptides of protein X5 of SARS-CoV Urbani [3]: 0.4 | Binding of serum London to linear peptides of protein X5 of SARS-CoV Urbani [3]: 0.7 | Binding of serum London to looped/cyclic peptides of protein X5 of SARS-CoV Urbani [3]: 0.2 | Binding of serum SARS-green to linear peptides of protein X5 of SARS-CoV Urbani [3]: 0.5 | Binding of serum SARS-green to looped/cyclic peptides of protein X5 of SARS-CoV Urbani [3]: 0.5 | Binding of serum SARS-yellow to linear peptides of protein X5 of SARS-CoV Urbani [3]: 0.4 | Binding of serum SARS-yellow to looped/cyclic peptides of protein X5 of SARS-CoV Urbani [3]: 0.4

FIRQEEVQQELYSPL
Rabbit serum linear peptides [1]: 0.5 | Rabbit serum looped peptides [1]: 0.5 | Binding of Control Serum Blood-Bank to Looped peptides [2]: 0.9 | Binding of Control serum Blood-bank to linear peptides [2]: 0.7 | Binding of Control serum LUMC to linear peptides [2]: 0.7 | Binding of Control serum LUMC to looped peptides [2]: 0.9 | Binding of serum 1a to linear peptides of protein X4 of SARS-CoV Urbani [3]: 0.8 | Binding of serum 1b to linear peptides of protein X4 of SARS-CoV Urbani [3]: 0.6 | Binding of serum 2 to linear peptides of protein X4 of SARS-CoV Urbani [3]: 0.5 | Binding of serum 6 to linear peptides of protein X4 of SARS-CoV Urbani [3]: 0.5 | Binding of serum 37 to linear peptides of protein X4 of SARS-CoV Urbani [3]: 0.8 | Binding of serum 62 to linear peptides of protein X4 of SARS-CoV Urbani [3]: 0.7 | Binding of serum London to linear peptides of protein X4 of SARS-CoV Urbani [3]: 0.7 | Binding of serum SARS-green to linear peptides of protein X4 of SARS-CoV Urbani [3]: 0.5 | Binding of serum SARS-yellow to linear peptides of protein X4 of SARS-CoV Urbani [3]: 0.7 | Recognition of the peptide by sera of SARS-CoV infected individuals, and form (linear, looped/cyclic) in which it is recognized [3]: recognized in looped/cyclic form

FLAVFQSATKIIALN
Binding of a rabbit serum to linear peptides [1]: 0.6 | Binding of a rabbit serum to looped peptides [1]: 0.6 | Binding of Control Serum Blood-Bank to Looped peptides [2]: 0.6 | Binding of Control serum Blood-bank to linear peptides [2]: 0.6 | Binding of Control serum LUMC to linear peptides [2]: 0.6 | Binding of Control serum LUMC to looped peptides [2]: 0.7 | Binding of serum 1a to linear peptides of protein X1 of SARS-CoV Urbani [3]: 0.6 | Binding of serum 1a to looped/cyclic peptide (PEPSCAN-ELISA) [3]: 0.6 | Binding of serum 1b to linear peptides of protein X1 of SARS-CoV Urbani [3]: 0.4 | Binding of serum 1b to looped/cyclic peptide (PEPSCAN-ELISA) [3]: 0.4 | Binding of serum 2 to linear peptides of protein X1 of SARS-CoV Urbani [3]: 0.5 | Binding of serum 2 to looped/cyclic peptide (PEPSCAN-ELISA) [3]: 0.5 | Binding of serum 6 to linear peptides of protein X1 of SARS-CoV Urbani [3]: 0.4 | Binding of serum 6 to looped/cyclic peptide (PEPSCAN-ELISA) [3]: 1.0 | Binding of serum 37 to linear peptides of protein X1 of SARS-CoV Urbani [3]: 0.6 | Binding of serum 37 to looped/cyclic peptide (PEPSCAN-ELISA) [3]: 0.5 | Binding of serum 62 to linear peptides of protein X1 of SARS-CoV Urbani [3]: 0.6 | Binding of serum 62 to looped/cyclic peptide (PEPSCAN-ELISA) [3]: 0.6 | Binding of serum London to linear peptides of protein X1 of SARS-CoV Urbani [3]: 0.2 | Binding of serum London to looped/cyclic peptide (PEPSCAN-ELISA) [3]: 1.4 | Binding of serum SARS-green to linear peptides of protein X1 of SARS-CoV Urbani [3]: 0.3 | Binding of serum SARS-green to looped/cyclic peptide (PEPSCAN-ELISA) [3]: 0.3 | Binding of serum SARS-yellow to linear peptides of protein X1 of SARS-CoV Urbani [3]: 0.4 | Binding of serum SARS-yellow to looped/cyclic peptide (PEPSCAN-ELISA) [3]: 0.4

FLAWIMLLQFAYSNR
Rabbit serum linear peptides [1]: 0.3 | Rabbit serum looped peptides [1]: 0.5 | Binding of Control Serum Blood-Bank to Looped peptides of the protein M of SARS-CoV Urbani [2]: 0.8 | Binding of Control serum Blood-bank to linear peptides of the protein M of SARS-CoV Urbani [2]: 0.5 | Binding of Control serum LUMC to linear peptides of the protein M of SARS-CoV Urbani [2]: 0.5 | Binding of Control serum LUMC to looped peptides of the protein M of SARS-CoV Urbani [2]: 0.7 | Binding of serum 1a to linear peptides of protein M of SARS-CoV Urbani [3]: 0.7 | Binding of serum 1a to looped/cyclic peptides of protein M of SARS-CoV Urbani [3]: 0.8 | Binding of serum 1b to linear peptides of protein M of SARS-CoV Urbani [3]: 0.6 | Binding of serum 1b to looped/cyclic peptides of protein M of SARS-CoV Urbani [3]: 0.8 | Binding of serum 2 to linear peptides of protein M of SARS-CoV Urbani [3]: 0.5 | Binding of serum 2 to looped/cyclic peptides of protein M of SARS-CoV Urbani [3]: 0.6 | Binding of serum 6 to linear peptides of protein M of SARS-CoV Urbani [3]: 0.4 | Binding of serum 6 to looped/cyclic peptides of protein M of SARS-CoV Urbani [3]: 0.9 | Binding of serum 37 to linear peptides of protein M of SARS-CoV Urbani [3]: 0.4 | Binding of serum 37 to looped/cyclic peptides of protein M of SARS-CoV Urbani [3]: 0.7 | Binding of serum 62 to linear peptides of protein M of SARS-CoV Urbani [3]: 0.4 | Binding of serum 62 to looped/cyclic peptides of protein M of SARS-CoV Urbani [3]: 0.6 | Binding of serum London to linear peptides of protein M of SARS-CoV Urbani [3]: 0.4 | Binding of serum London to looped/cyclic peptides of protein M of SARS-CoV Urbani [3]: 0.7 | Binding of serum SARS-green to linear peptides of protein M of SARS-CoV Urbani [3]: 0.5 | Binding of serum SARS-green to looped/cyclic peptides of protein M of SARS-CoV Urbani [3]: 0.5 | Binding of serum SARS-yellow to linear peptides of protein M of SARS-CoV Urbani [3]: 0.2 | Binding of serum SARS-yellow to looped/cyclic peptides of protein M of SARS-CoV Urbani [3]: 0.7

FLFLAWIMLLQFAYS
Rabbit serum linear peptides [1]: 0.2 | Rabbit serum looped peptides [1]: 0.3 | Binding of Control Serum Blood-Bank to Looped peptides of the protein M of SARS-CoV Urbani [2]: 0.8 | Binding of Control serum Blood-bank to linear peptides of the protein M of SARS-CoV Urbani [2]: 0.5 | Binding of Control serum LUMC to linear peptides of the protein M of SARS-CoV Urbani [2]: 0.5 | Binding of Control serum LUMC to looped peptides of the protein M of SARS-CoV Urbani [2]: 0.7 | Binding of serum 1a to linear peptides of protein M of SARS-CoV Urbani [3]: 0.7 | Binding of serum 1a to looped/cyclic peptides of protein M of SARS-CoV Urbani [3]: 0.8 | Binding of serum 1b to linear peptides of protein M of SARS-CoV Urbani [3]: 0.6 | Binding of serum 1b to looped/cyclic peptides of protein M of SARS-CoV Urbani [3]: 0.7 | Binding of serum 2 to linear peptides of protein M of SARS-CoV Urbani [3]: 0.4 | Binding of serum 2 to looped/cyclic peptides of protein M of SARS-CoV Urbani [3]: 0.6 | Binding of serum 6 to linear peptides of protein M of SARS-CoV Urbani [3]: 0.4 | Binding of serum 6 to looped/cyclic peptides of protein M of SARS-CoV Urbani [3]: 0.9 | Binding of serum 37 to linear peptides of protein M of SARS-CoV Urbani [3]: 0.4 | Binding of serum 37 to looped/cyclic peptides of protein M of SARS-CoV Urbani [3]: 0.7 | Binding of serum 62 to linear peptides of protein M of SARS-CoV Urbani [3]: 0.4 | Binding of serum 62 to looped/cyclic peptides of protein M of SARS-CoV Urbani [3]: 0.8 | Binding of serum London to linear peptides of protein M of SARS-CoV Urbani [3]: 0.3 | Binding of serum London to looped/cyclic peptides of protein M of SARS-CoV Urbani [3]: 0.3 | Binding of serum SARS-green to linear peptides of protein M of SARS-CoV Urbani [3]: 0.4 | Binding of serum SARS-green to looped/cyclic peptides of protein M of SARS-CoV Urbani [3]: 0.3 | Binding of serum SARS-yellow to linear peptides of protein M of SARS-CoV Urbani [3]: 0.2 | Binding of serum SARS-yellow to looped/cyclic peptides of protein M of SARS-CoV Urbani [3]: 0.4
